The source of these data is patent US8569338B2, “Methods of using 4, 5, 6, 7-tetrahydroimidazo-[4,5-c]pyridine compounds” (Proximagen Ltd., priority 2008, dated 2013).

The target in the assay is purified recombinantly expressed human SSAO (Homo sapiens (Human), UniProt Q16853). In words: SSAO enzyme inhibition assay (HRP-coupled Amplex Red, benzylamine substrate). The following applies: benzylamine 100 μM, approximately 60 minutes pre-incubation, pH 7.4, room temperature. The format is biochemical. The method, then: Biological Assay of the SSAO Enzyme Inhibitors
Chain of purified recombinantly expressed human SSAO (Q16853 29-763): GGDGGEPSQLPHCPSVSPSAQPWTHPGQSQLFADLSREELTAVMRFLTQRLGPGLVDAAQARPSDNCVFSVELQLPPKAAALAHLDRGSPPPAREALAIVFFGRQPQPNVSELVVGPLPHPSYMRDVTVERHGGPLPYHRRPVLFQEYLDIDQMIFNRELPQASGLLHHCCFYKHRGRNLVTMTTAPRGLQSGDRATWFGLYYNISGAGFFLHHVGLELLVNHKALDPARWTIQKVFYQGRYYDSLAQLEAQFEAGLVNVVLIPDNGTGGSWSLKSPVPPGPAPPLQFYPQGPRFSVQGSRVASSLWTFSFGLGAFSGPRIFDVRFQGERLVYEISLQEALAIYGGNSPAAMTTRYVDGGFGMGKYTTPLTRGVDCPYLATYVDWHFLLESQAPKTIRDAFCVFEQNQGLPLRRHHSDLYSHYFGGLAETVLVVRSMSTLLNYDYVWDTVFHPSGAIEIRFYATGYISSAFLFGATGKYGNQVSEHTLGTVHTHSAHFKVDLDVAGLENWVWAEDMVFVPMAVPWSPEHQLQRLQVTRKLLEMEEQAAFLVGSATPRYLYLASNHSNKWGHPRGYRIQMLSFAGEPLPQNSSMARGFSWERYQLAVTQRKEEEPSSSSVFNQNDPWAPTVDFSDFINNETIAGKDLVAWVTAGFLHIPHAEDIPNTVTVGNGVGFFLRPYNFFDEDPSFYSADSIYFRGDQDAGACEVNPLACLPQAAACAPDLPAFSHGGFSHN
All assays were performed in room temperature with purified recombinantly expressed human SSAO. Enzyme was prepared essentially as described in Ohman et al. (Protein Expression and Purification 2006, 46, 321-331). The enzyme activity was measured with benzylamine as substrate and utilized the production of hydrogen peroxide for detection. In a horseradish peroxidise (HRP) coupled reaction, hydrogen peroxide oxidation of 10-acetyl-3,7-dihydroxyphenoxazine produced resorufin, which is a highly fluorescent compound (Zhout and Panchuk-Voloshina. Analytical Biochemistry 1997, 253, 169-174; Amplex® Red Hydrogen Peroxide/peroxidise Assay kit, Invitrogen A22188).
Briefly, test compounds were dissolved in dimethyl sulfoxide (DMSO) to a concentration of 10 mM. Dose-response measurements were assayed by either creating 1:10 serial dilutions in DMSO to produce a 7 point curve or by making 1:3 serial dilutions in DMSO to produce 11 point curves. The top concentrations were adjusted depending on the potency of the compounds and subsequent dilution in reaction buffer (50 mM sodium phosphate, pH 7.4) yielded a final DMSO concentration≦2%. Enzyme and compounds were set to pre-incubate in flat-bottomed microtiter plates for approximately 60 minutes before initiating the reaction by addition of a mixture of HRP, benzylamine and Amplex reagent. Fluorescence intensity was then measured at several time points (15 minutes, 20 minutes and 30 minutes) exciting at 544 nm and reading the emission at 590 nm). Final concentrations of the reagents in the assay wells were: SSAO enzyme 2 μg/ml, benzylamine 100 μM, Amplex reagent 20 μM, HRP 0.1 U/mL and varying concentrations of test compound. The inhibition was measured as % decrease of the signal compared to a control without inhibitor (only diluted DMSO). The background signal from a sample containing no SSAO enzyme was subtracted from all data points. Data was fitted to a four parameter logistic model and IC50 values were calculated using the GraphPad Prism 4 or XLfit 4 programs.
With `CC(C)C1c2[nH]cnc2CCN1C(=O)OCCOc1ccccc1` (stereo not drawn) [Example 14, 2-Phenoxyethyl 4-isopropyl-1,4,6,7-tetrahydro-5H-imidazo[4,5-c]pyridine-5-carboxylate], the IC50 – broadly, the concentration that gives 50% inhibition – was found to be 0.048 µM.

For the compound `CC(C)C1c2[nH]cnc2CCN1C(=O)OCc1cccnc1` (stereo not drawn) [Example 7, Pyridin-3-ylmethyl 4-isopropyl-1,4,6,7-tetrahydro-5H-imidazo[4,5-c]pyridine-5-carboxylate], the IC50 stood at 0.034 µM.

With `CC(C)C1c2[nH]cnc2CCN1C(=O)OCC1CCOC1` (stereo not drawn) [Example 17, Tetrahydrofuran-3-ylmethyl 4-isopropyl-1,4,6,7-tetrahydro-5H-imidazo[4,5-c]-pyridine-5-carboxylate], the IC50 turned out to be 0.091 µM.
